Data as given in patent US11884961B2, “DNA-glycan conjugates and methods of use” (GEORGIA STATE UNIVERSITY RESEARCH FOUNDATION, INC., priority 2017, dated 2024).

Legend:
[1] = test system: VK9, a mouse IgG anti-Globo H monoclonal antibody; experiment: ELISA of biotinylated glycans captured on streptavidin against VK9; assay type: binding; details: biotinylated sugars captured on streptavidin; OD450
Excerpt: (§1) Initially we validated the selected system with the conventional ELISA to confirm the antibody binding capacity and specificity of the glycans. Since sugars have low binding affinity for unmodified plastic surfaces, the binding protein, streptavidin, was used to capture biotinylated sugars. In another experiment we also tested DEGL using ELISA to see the effect of different presentation of glycans. For this assay, we coated the DEGL onto plastic surfaces directly. Both naked glycan and DEGL was tested against VK9, a mouse IgG anti-Globo H monoclonal antibody. […] We rationalize this difference in pattern to the different presentation of glycan epitope, all of the four glycans have the same terminal epitope of Fuc a1-2 Gal(b1-3 GalNAc), which is recognized by VK9 antibodies,[38] but a long DNA tag on the DEGL will give more space to the glycan antigens binding with the antibody, while normal ELISA would block the binding of the short glycans of Bb3 and Bb2. […]
(§2) A 96-well plate (Costar® Polystyrene High Binding Plate 3590) was coated with […] of 10 ug/ml Streptavidin (Sigma) in 0.01 M PBS (pH 7.4) at 4° C. overnight. […] The plate was then read at OD450 with a plate reader (PerkinElmer®, 2030 Multilabel Reader Victor®). The result was calculated by minus OD450 value of control (no antibody).

[2] = test system: VK9 antibody; experiment: Multiplex detection of DEGL against VK9 antibody by NGS; assay type: binding, mouse
Experimental: Next, we wanted to translate the results to more promising NGS based parallel screening. Initially we tested the different concentrations of DEGL with different concentrations of VK9 antibody using the PCR and qPCR assays. We incubated 1 uM, 500 nM, 100 nM and 10 nM samples with 0.5 μL, 1 μL, and 2 μL of the VK9 antibody (0.5 μg/μL), and unbound glycans were washed out after precipitating the bound glycan-VK9 complex on protein A/G beads. Each assay was compared to the same amount of DEGL with no VK9 negative control. Then, washed beads were used as the template for the NGS analysis. Briefly, beads were diluted to 20 μL, and from this, 2 μL was used for the initial PCR amplification (18 cycles). PCR products were then purified using AMpure beads (Beckman Coulter) according to the manufacturer's protocol and used for the NGS fusion PCR to incorporate the index codes and ion-torrent NGS adapters. Now about 150 bp DNA codes, it was again purified using AMpure beads, and all barcoded samples were run through an Agilent Bioanalyzer for quality control. Samples were then pooled in equimolar concentration and adjusted to the desired 26 pM for the NGS, analyzed using ion-PGM semiconductor sequencer. Data were analyzed using ‘FASTAPTAMER’ software,[39] and an in house developed program. […]

[3] = test system: VK9, a mouse IgG anti-Globo H monoclonal antibody; experiment: ELISA of DEGL (glycan-DNA codes coated with Pierce DNA coating solution) against VK9; assay type: binding; details: glycan-DNA conjugates coated directly onto plastic; OD450
Excerpt: as §1, §2

Substance: Globo-H [GbH]
- ELISA binding intensity of VK9 [1]: very high binding intensities
- relative enrichment in comparison with the no VK9 negative control ([2]; biotin tagged secondary antibody, magnetic streptavidin beads, NGS): enriched
- enrichment (NGS) ([2]; modified method with control sequence added after selection, Globo-H series+A and B glycan DEGL): selective enrichment
- ELISA binding of VK9 [3]: strong binding
